In ChEMBL document CHEMBL4630907 (2021):
The source made the active and inactive calls. The calls are words filed in the database; no cut-off is given here.

What was measured:
[1] = target: Sodium-dependent serotonin transporter (Homo sapiens, UniProt P31645); details: Compound concentration 10.0 uM
[2] = target: T1, Bromodomain-containing protein 3 (Homo sapiens, UniProt Q15059); assay: BET mutant TR-FRET assay (BRD3 BD2)
[3] = target: Delta-type opioid receptor (Homo sapiens) (UniProt P41143); details: Compound concentration 10.0 uM
[4] = target: Muscarinic acetylcholine receptor M2 (Homo sapiens) (UniProt P08172); details: Compound concentration 10.0 uM
[5] = target: 5-hydroxytryptamine receptor 1B (Homo sapiens, UniProt P28222); details: Compound concentration 10.0 uM
Chain of 5-hydroxytryptamine receptor 1B (P28222 whole entry): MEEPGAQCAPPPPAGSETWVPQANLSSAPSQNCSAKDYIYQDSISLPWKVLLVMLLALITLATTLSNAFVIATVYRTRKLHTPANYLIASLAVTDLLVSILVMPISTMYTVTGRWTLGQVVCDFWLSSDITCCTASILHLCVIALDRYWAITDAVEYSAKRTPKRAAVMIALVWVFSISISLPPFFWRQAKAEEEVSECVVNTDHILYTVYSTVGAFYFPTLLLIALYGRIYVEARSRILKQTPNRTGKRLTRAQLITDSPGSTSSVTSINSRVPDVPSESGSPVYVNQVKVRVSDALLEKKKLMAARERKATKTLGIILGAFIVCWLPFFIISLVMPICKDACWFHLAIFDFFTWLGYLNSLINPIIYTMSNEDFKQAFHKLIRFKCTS

[6] = target: GABA-A receptor; anion channel (Rattus norvegicus) (UniProt O09028+P15431+P18506+P18508+P19969+P20236+P23574+P23576+P28471+P28473+P30191+P62813+P63079+P63138+Q91ZM7+Q9ES14); details: Compound concentration 10.0 uM
[7] = target: Kappa-type opioid receptor (Homo sapiens, UniProt P41145); details: Compound concentration 10.0 uM
Chain of Kappa-type opioid receptor (P41145 whole entry): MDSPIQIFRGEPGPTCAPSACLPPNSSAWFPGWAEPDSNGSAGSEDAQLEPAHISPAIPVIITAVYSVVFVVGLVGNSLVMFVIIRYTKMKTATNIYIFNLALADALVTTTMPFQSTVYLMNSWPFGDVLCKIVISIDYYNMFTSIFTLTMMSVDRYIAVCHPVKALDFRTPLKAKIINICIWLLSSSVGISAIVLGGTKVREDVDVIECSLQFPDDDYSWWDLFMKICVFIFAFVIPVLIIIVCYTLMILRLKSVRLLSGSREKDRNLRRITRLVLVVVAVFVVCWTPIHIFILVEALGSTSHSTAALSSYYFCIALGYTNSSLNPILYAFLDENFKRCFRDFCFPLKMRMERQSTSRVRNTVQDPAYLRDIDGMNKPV

[8] = target: Histone acetyltransferase KAT2B (Homo sapiens, UniProt Q92831); assay: PCAF DiscoverX BROMOscan
[9] = target: D(1A) dopamine receptor (Homo sapiens, UniProt P21728); details: Compound concentration 10.0 uM
[10] = target: 5-hydroxytryptamine receptor 6 (Homo sapiens) (UniProt P50406); details: Compound concentration 10.0 uM
[11] = target: 5-hydroxytryptamine receptor 7 (Homo sapiens) (UniProt P34969); details: Compound concentration 10.0 uM
[12] = target: T2, Bromodomain-containing protein 2 (Homo sapiens, UniProt P25440); assay: BRD2 Bromoscan (DiscoverX)
T2 sequence (P25440 whole entry): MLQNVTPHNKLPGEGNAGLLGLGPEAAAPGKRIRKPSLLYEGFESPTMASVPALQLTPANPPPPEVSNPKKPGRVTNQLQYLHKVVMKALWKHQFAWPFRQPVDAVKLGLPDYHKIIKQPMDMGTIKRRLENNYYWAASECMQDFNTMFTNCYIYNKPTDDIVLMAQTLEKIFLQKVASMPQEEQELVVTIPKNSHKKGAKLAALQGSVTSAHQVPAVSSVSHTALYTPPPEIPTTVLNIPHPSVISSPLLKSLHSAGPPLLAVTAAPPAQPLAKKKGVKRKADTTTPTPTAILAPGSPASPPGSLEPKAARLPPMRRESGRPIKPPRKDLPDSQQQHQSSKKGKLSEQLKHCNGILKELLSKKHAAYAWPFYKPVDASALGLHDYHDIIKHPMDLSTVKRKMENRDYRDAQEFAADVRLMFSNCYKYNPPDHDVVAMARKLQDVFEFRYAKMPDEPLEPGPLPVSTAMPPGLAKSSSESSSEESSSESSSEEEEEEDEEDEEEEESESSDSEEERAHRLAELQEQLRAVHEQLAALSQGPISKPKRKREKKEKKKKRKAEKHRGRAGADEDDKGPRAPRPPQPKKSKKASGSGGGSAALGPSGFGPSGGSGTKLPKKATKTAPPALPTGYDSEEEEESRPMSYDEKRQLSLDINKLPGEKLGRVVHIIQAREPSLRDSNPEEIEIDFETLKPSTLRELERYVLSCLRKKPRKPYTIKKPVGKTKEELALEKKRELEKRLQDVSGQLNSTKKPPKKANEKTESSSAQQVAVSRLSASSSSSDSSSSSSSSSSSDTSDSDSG

[13] = target: T1, Bromodomain-containing protein 3; assay: TR-FRET assay (BRD3 BD1)
[14] = target: D(3) dopamine receptor (Homo sapiens, UniProt P35462); assay: GPCRScan assay: inhibition of D3; design: radioligand conc. used [nm] 0.5 – 1.8, parental cells HEKT
Chain of D(3) dopamine receptor (P35462 whole entry): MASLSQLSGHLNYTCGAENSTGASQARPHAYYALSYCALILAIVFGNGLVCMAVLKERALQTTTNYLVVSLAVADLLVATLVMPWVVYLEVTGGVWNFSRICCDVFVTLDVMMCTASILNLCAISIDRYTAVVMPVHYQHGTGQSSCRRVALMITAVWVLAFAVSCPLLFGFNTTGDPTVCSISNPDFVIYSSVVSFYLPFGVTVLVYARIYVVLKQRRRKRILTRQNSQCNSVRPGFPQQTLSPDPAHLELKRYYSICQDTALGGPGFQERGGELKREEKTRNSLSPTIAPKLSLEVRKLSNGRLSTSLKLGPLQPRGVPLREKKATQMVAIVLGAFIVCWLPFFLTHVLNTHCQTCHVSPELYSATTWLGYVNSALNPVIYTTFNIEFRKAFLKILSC

[15] = target: Beta-3 adrenergic receptor (Homo sapiens) (UniProt P13945); details: Compound concentration 10.0 uM
[16] = target: Transcription initiation factor TFIID subunit 1 (Homo sapiens, UniProt P21675); assay: TAF1(2) DiscoverX BROMOscan
[17] = target: Muscarinic acetylcholine receptor M4 (Homo sapiens) (UniProt P08173); details: Compound concentration 10.0 uM
Chain of Muscarinic acetylcholine receptor M4 (Homo sapiens) (P08173 whole entry): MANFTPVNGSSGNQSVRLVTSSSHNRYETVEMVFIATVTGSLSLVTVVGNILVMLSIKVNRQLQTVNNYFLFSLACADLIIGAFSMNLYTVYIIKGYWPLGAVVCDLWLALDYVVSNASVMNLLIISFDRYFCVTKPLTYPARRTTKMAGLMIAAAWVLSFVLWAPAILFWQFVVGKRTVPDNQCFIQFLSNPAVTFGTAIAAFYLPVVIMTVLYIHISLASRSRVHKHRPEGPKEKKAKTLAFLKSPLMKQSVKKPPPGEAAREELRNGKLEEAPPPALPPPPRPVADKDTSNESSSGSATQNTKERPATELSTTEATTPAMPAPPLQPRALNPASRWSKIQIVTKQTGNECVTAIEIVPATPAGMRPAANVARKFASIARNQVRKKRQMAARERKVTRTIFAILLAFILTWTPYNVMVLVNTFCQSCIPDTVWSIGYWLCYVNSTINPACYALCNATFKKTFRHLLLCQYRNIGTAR

[18] = target: Histamine H4 receptor (Homo sapiens) (UniProt Q9H3N8); details: Compound concentration 10.0 uM
[19] = target: Muscarinic acetylcholine receptor M1 (Homo sapiens) (UniProt P11229); details: Compound concentration 10.0 uM
[20] = target: Sodium-dependent noradrenaline transporter (Homo sapiens, UniProt P23975); details: Compound concentration 10.0 uM
[21] = target: Muscarinic acetylcholine receptor M3 (Homo sapiens) (UniProt P20309); details: Compound concentration 10.0 uM
[22] = target: D(4) dopamine receptor (Homo sapiens, UniProt P21917); assay: GPCRScan assay: inhibition of D4; design: radioligand conc. used [nm] 0.6 – 1.7, parental cells Stable HEK
Chain of D(4) dopamine receptor (P21917 whole entry): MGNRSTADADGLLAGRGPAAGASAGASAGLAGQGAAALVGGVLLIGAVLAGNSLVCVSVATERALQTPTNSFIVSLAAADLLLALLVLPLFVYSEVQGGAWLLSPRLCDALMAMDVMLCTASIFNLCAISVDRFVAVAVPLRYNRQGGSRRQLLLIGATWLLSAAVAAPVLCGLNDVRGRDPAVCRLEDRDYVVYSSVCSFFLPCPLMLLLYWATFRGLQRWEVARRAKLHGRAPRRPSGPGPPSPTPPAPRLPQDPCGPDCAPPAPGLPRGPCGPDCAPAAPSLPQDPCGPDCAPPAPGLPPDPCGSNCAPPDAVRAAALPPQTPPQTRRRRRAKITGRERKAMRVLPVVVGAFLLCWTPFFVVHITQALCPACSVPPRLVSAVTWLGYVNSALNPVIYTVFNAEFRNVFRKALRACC

[23] = (§1) Cross screening panel
[24] = target: Alpha-1B adrenergic receptor (Homo sapiens) (UniProt P35368); details: Compound concentration 10.0 uM
[25] = target: Cytochrome P450 3A4 (Homo sapiens, UniProt P08684); assay: as §1
[26] = target: CREB-binding protein (Homo sapiens, UniProt Q92793); assay: CREBBP DiscoverX BROMOscan
[27] = target: E3 ubiquitin-protein ligase TRIM33 (Homo sapiens, UniProt Q9UPN9); assay: TRIM33(PHD,Bromo.) DiscoverX BROMOscan
Chain of E3 ubiquitin-protein ligase TRIM33 (Q9UPN9 whole entry): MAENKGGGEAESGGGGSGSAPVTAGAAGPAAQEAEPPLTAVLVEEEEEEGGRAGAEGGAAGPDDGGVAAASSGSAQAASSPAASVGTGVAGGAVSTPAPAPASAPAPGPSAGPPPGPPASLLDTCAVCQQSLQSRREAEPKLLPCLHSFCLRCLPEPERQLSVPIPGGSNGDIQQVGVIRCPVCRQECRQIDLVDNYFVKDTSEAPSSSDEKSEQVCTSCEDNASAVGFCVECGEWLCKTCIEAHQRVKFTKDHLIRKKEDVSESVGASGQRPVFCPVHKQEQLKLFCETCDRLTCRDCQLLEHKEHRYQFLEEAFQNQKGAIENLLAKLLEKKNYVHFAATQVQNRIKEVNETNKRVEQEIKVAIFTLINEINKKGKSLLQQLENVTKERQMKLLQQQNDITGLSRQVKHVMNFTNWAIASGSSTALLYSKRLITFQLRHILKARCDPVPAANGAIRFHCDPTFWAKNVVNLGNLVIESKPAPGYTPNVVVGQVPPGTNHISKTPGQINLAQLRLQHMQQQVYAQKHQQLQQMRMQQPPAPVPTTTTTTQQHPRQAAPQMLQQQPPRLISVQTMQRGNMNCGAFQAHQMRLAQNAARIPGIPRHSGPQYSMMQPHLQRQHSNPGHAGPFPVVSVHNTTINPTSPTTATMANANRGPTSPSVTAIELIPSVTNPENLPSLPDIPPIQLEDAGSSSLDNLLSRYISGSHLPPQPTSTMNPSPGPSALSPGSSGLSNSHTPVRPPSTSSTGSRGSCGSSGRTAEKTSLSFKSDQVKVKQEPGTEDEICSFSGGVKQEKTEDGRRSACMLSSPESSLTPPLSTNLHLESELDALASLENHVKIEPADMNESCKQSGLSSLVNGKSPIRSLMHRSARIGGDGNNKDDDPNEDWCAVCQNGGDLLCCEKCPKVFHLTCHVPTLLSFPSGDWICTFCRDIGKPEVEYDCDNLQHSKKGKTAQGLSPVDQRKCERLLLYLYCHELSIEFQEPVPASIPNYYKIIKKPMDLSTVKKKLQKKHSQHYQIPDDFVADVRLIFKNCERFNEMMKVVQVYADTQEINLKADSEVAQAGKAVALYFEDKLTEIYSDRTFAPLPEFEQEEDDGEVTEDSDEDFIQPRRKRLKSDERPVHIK

[28] = target: D(1B) dopamine receptor (Homo sapiens) (UniProt P21918); details: Compound concentration 10.0 uM
[29] = target: D(2) dopamine receptor (Homo sapiens, UniProt P14416); details: Compound concentration 10.0 uM
[30] = target: T2, Bromodomain-containing protein 2; assay: BRD2(1) DiscoverX BROMOscan
[31] = target: Histamine H1 receptor (Homo sapiens, UniProt P35367); details: Compound concentration 10.0 uM
[32] = target: Sigma non-opioid intracellular receptor 1 (Homo sapiens) (UniProt Q99720); details: Compound concentration 10.0 uM
[33] = target: 3',5'-cyclic-AMP phosphodiesterase 4B (Homo sapiens, UniProt Q07343); assay: as §1
[34] = target: Mu-type opioid receptor (Homo sapiens, UniProt P35372); assay: as §1
[35] = target: Aurora kinase B (Homo sapiens, UniProt Q96GD4); assay: as §1
[36] = target: T3, 5-hydroxytryptamine receptor 3A (Homo sapiens, UniProt P46098); assay: as §1
T3 sequence (P46098 whole entry): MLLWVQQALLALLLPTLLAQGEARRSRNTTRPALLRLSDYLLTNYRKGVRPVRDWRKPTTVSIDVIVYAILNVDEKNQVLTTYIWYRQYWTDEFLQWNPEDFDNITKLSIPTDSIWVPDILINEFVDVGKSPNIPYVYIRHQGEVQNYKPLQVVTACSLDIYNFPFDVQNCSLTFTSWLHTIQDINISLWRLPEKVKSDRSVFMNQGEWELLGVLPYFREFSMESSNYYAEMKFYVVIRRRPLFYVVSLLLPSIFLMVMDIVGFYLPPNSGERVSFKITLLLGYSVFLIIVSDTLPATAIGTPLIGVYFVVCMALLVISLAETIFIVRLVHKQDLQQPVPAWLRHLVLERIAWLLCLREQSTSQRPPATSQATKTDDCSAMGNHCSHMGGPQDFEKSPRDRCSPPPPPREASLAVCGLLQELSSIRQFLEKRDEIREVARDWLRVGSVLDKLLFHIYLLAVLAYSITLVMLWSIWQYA

[37] = target: Acetylcholine receptor subunit alpha (Homo sapiens, UniProt P02708); assay: as §1
Chain of Acetylcholine receptor subunit alpha (P02708 whole entry, canonical isoform): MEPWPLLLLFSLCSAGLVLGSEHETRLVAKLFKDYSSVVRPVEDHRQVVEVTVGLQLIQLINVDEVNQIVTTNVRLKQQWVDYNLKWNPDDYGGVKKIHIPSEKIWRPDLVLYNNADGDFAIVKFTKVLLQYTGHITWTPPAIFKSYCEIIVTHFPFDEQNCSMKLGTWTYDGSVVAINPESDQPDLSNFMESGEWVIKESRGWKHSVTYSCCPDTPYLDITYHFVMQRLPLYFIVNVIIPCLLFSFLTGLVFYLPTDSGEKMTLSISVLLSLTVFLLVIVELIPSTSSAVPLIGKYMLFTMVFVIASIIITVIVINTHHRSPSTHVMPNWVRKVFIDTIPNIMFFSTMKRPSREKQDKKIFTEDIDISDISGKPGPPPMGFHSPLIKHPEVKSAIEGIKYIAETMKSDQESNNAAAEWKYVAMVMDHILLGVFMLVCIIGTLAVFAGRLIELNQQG

[38] = target: Phosphatidylinositol 4,5-bisphosphate 3-kinase catalytic subunit gamma isoform (Homo sapiens, UniProt P48736); assay: as §1
[39] = species on record: Rattus norvegicus; details: Compound concentration 10.0 uM
[40] = target: T2, Bromodomain-containing protein 2; assay: BRD2(2) DiscoverX BROMOscan
[41] = target: Beta-1 adrenergic receptor (Homo sapiens) (UniProt P08588); details: Compound concentration 10.0 uM
[42] = target: 5-hydroxytryptamine receptor 2A (Homo sapiens, UniProt P28223); details: Compound concentration 10.0 uM
Chain of 5-hydroxytryptamine receptor 2A (P28223 whole entry): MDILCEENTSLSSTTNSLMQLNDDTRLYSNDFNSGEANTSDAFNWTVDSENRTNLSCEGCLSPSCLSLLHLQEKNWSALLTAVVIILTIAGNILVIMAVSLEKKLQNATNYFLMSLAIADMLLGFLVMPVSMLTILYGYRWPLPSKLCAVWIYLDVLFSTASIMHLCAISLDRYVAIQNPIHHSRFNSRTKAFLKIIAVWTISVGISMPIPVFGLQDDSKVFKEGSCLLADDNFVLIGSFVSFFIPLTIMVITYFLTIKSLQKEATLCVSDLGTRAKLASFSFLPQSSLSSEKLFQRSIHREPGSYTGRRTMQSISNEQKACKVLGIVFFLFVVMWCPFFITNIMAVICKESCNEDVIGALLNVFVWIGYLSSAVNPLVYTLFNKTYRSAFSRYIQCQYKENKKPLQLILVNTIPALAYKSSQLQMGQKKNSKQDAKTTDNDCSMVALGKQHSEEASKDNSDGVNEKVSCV

[43] = target: T3, 5-hydroxytryptamine receptor 3A; assay: GPCRScan assay: inhibition of 5-HT3; design: radioligand conc. used [nm] 1.0 – 2.0, parental cells HEKT
[44] = target: Peregrin (Homo sapiens, UniProt P55201); assay: BRPF1 DiscoverX BROMOscan

In the case of `COCc1nc2cnc3cc(-c4c(C)noc4C)c(OC[C@H]4CCNC4)cc3c2n1[C@H](C)c1ccccc1` [GSK778], the inhibition [1] is reported as 10.7%, the pIC50 [2] is reported as 6 and the inhibition [3] is reported as 38.5%. For the same compound, the inhibition [4] was 4.05%, the inhibition [5] was 8.66% and the inhibition [6] was 52.7%. It also gave an inhibition [7] of 15.5%, a Kd [8] of 33 µM and an inhibition [9] of 2.89%. The inhibition [10] was -9.08%, the inhibition [11] was -5.39% and the Kd [12] was 0.013 µM (active). For the same compound, the IC50 [13] was 0.041 µM (active), the Ki ([14]; read-out: Ki) was 0.486 µM and the Ki ([14]; read-out: pKi (converted)) was 0.407 µM. It also gave an inhibition [15] of 10.5%, a Kd [16] of 30 µM and an inhibition [17] of 15.7%. For the same compound, the inhibition [18] was 29.3%, the inhibition [19] was -1.37% and the inhibition [20] was 34.5%. The inhibition [21] was -3.35%, the Ki ([22]; read-out: Ki) was 0.857 µM and the Ki ([22]; read-out: pKi (converted)) was 0.813 µM. The pMEC [23] was < 4, the inhibition [24] was 4.2% and the IC50 [25] was 1 µM. It also gave a Kd [26] of 3.8 µM, a Kd [27] of 30 µM and an inhibition [28] of 31.7%. It also gave an inhibition [29] of 27.7%, a Kd [30] of 0.013 µM and an inhibition [31] of 0.33%. The inhibition [32] was 38.5%, the IC50 [33] was 39.8 µM and the EC50 [34] was > 100 µM. The IC50 [35] was > 31.6 µM, the EC50 [36] was > 50.1 µM and the IC50 [36] was > 50.1 µM. The EC50 [37] was > 50.1 µM, the IC50 [37] was 1 µM and the IC50 [38] was > 31.6 µM. It also gave an inhibition [39] of 7.75%, a Kd [40] of 0.84 µM and an inhibition [41] of 4.82%. For the same compound, the inhibition [42] was -5.06%, the Ki [43] was 4.46 µM and the Kd [44] was 15 µM.
